Experimental findings from the NIST ThermoML archive (doi:10.1016/j.jct.2016.11.030) are described below.

Each structure is given as a SMILES string. Numbers after ± are expanded uncertainties.

For data set [1] the following is noted: Crystal; DTA.
Data set [2] in a line: Molar enthalpy of transition or fusion. Conditions: Crystal; DSC.

Consider `COc1cc(CO)ccc1O` [4-hydroxy-3-methoxybenzyl alcohol], for which the Normal melting temperature in data set [1] is 116 ± 1.1 °C. Besides, the “Molar enthalpy of transition or fusion” value in data set [2] worked out at 30.7 ± 1.4 kJ/mol.
